Where two headings read alike, the source gives them in different places.
Key:
Assay type in all cases: in vivo, beagle dogs
[1] = Metabolites of DCDQ identified in dogs by LC/MS analysis (Table 26); settings: P = plasma, U = urine, B = brain, F = feces
Description: An Agilent Model 1100 HPLC system (Agilent Technologies, Palo Alto, Calif.) including an autosampler and diode array UV detector was used for LC/MS analysis. The UV detector was set to monitor 200 to 400 nm. For selected LC/MS analysis, radiochromatograms were acquired using a β-Ram model 3 radioactivity flow detector (IN/US Systems Inc., Tampa, Fla.) equipped with a solid scintillant flow cell. LC conditions were the same as the condition B described above.
The mass spectrometer used for metabolite characterization was a Micromass Q-TOF-2 quadrupole time-of-flight hybrid mass spectrometer (Waters). The mass spectrometer was equipped with an electrospray ionization (ESI) interface and operated in the positive ionization mode. Collision energy settings of 5 and 30 eV were used for full MS and MS/MS scans, respectively. Settings for the mass spectrometer are listed below.

[2] = Dog plasma metabolite profiles after single 15 mg/kg oral capsule of [14C]DCDQ; settings: for concentration at 2 h / concentration at 4 h / concentration at 8 h / concentration at 24 h / concentration at 48 h: male, beagle, dog, plasma, oral, 15 mg/kg, read-out: Estimated plasma concentration in dogs
Experimental: (§1) For plasma profiles, a TopCount NXT radiometric microplate reader (Perkin Elmer) was used to analyze the radioactivity in collected HPLC fractions. The limit of detection by TopCount was about 1 ng equivalent/mL. A Flo-One β Model A525 radioactivity detector (Perkin Elmer) with a 250 μL LQTR flow cell was used to acquire data for urine and fecal samples. The flow rate of Ultima Flow M scintillation fluid was 1 mL/min, providing a mixing ratio of scintillation cocktail to mobile phase of 5:1. The limits of detection by Flo-One detector were about 200 ng equivalents/mL for urine and 12 ng equivalents/g for feces.
Plasma samples were analyzed for metabolite profiles by HPLC. Aliquots of plasma were mixed with two volumes of cold methanol containing 0.1% trifluoroacetic acid (TFA), placed on ice for about 2 minutes and then centrifuged. The supernatant fluid was transferred to a clean tube and evaporated at 22° C. under nitrogen in a Zymark TurboVap LV (Caliper Life Sciences, Hopkinton, Mass.) to a volume of about 0.3 mL. The residue was centrifuged, the supernatant volume measured and extraction efficiency determined by analysis of duplicate 20 μL aliquots for radioactivity. A 200 μL aliquot of the supernatant was injected onto the HPLC column and the effluent was collected at 20 second intervals into 96-well Lumaplates (Perkin Elmer). The plates were dried overnight in an oven at 40° C. and analyzed by a TopCount. Plasma extracts were also analyzed by LC/MS.
(§2) A Waters model 2690 HPLC system (Waters Corp., Milford, Mass.) with a built-in autosampler was used for analysis. Separations were accomplished on a Phenomenex Luna C18(2) column (150×2.0 mm, 5 μm) (Phenomenex, Torrance, Calif.). The sample chamber of the autosampler was maintained at 4° C., while the column was at ambient temperature of about 20° C. A variable wavelength UV detector set to monitor 250 nm and a Flo-One β Model A525 radioactivity detector were used for data acquisition. The HPLC mobile phase consisted of 10 mM ammonium acetate, pH 4.5 (A) and acetonitrile (B), and was delivered at 0.2 mL/min. Chromatographic condition A was used for dose analysis, while condition B was used for analysis of urine and plasma, brain and fecal extracts.

[3] = Dog urinary excretion and metabolite profiles after oral capsule of [14C]DCDQ
Experimental: Blood samples were collected from the jugular vein at 2, 4, 8, 24 and 48 hour after dose administration into tubes containing potassium EDTA as the anticoagulant and then placed on ice. Aliquots of 50 μL were removed for combustion and determination of radioactivity content. Plasma was immediately obtained from the remaining blood by centrifugation at 4° C. Urine samples were collected into tubes on dry ice at intervals of 0-8, 8-24 and 24-48 hour post-dose. Fecal samples were collected at intervals of 0-8, 8-24 and 24-48 hour post-dose at room temperature, and were homogenized. The biological specimens were stored at approximately −70° C. until analysis.
as §1
Urine was analyzed for radioactivity concentration and analyzed by HPLC with radioactivity flow detection for metabolite profiles by direct injection to the HPLC column. LC/MS analyses for metabolite identification were also carried out with urine samples.
as §2

[4] = 0-8 hr, dog no. not printed (dog 1 by footnote a)

| Matrix [1] | Chromatographic distribution of radioactivity in dog plasma ([2]; 2 hr, dog 1) | Chromatographic distribution of radioactivity in dog plasma ([2]; 2 hr, dog 2) | Chromatographic distribution of radioactivity in dog plasma ([2]; 4 hr, dog 1) | Chromatographic distribution of radioactivity in dog plasma ([2]; 4 hr, dog 2) | Chromatographic distribution of radioactivity in dog plasma ([2]; 8 hr, dog 1) | Estimated plasma concentration in dogs ([2]; 8 hr, dog 2) | Estimated plasma concentration in dogs ([2]; 8 hr, dog 3) | Chromatographic distribution of radioactivity in dog plasma ([2]; 24 hr, dog 3) | Estimated plasma concentration in dogs ([2]; 48 hr, dog 1) | Estimated plasma concentration in dogs ([2]; 48 hr, dog 3) | concentration at 2 h ([2]; 2 hr, dog 1) | concentration at 2 h ([2]; 2 hr, dog 2) | concentration at 4 h ([2]; 4 hr, dog 1) | concentration at 4 h ([2]; 4 hr, dog 2) | concentration at 8 h ([2]; 8 hr, dog 1) | concentration at 24 h ([2]; 24 hr, dog 3) | Chromatographic distribution of radioactivity in dog urine ([3]; 8-24 hr, dog 1) | Chromatographic distribution of radioactivity in dog urine ([3]; 8-24 hr, dog 3) | Chromatographic distribution of radioactivity in dog urine ([3]; 24-48 hr, dog 1) | Compound | also measured |
| --- | --- | --- | --- | --- | --- | --- | --- | --- | --- | --- | --- | --- | --- | --- | --- | --- | --- | --- | --- | --- | --- |
| P, U | 8.4% | 2.6% | 8.0% | 4.9% | 8.0% | – | – | 6.4% | – | BQL | 0.0301 µg/mL | 0.0329 µg/mL | 0.04 µg/mL | 0.0809 µg/mL | 0.0433 µg/mL | 0.125 µg/mL | 8.3% | 6.7% | 4.4% | OC1CN2C[C@@H]3CCC[C@@H]3c3cccc(c32)CN1 (some centres unmarked) [Metabolite M1, hydroxy DCDQ] | Chromatographic distribution of radioactivity in dog plasma ([2]; 8 hr, dog 2): 4.7%; Chromatographic distribution of radioactivity in dog plasma ([2]; 8 hr, dog 3): 9.7%; Chromatographic distribution of radioactivity in dog plasma ([2]; 24 hr, dog 1): 6.8%; Chromatographic distribution of radioactivity in dog plasma ([2]; 24 hr, dog 2): 2.1%; Chromatographic distribution of radioactivity in dog plasma ([2]; 48 hr, dog 1): 12%; Chromatographic distribution of radioactivity in dog plasma ([2]; 48 hr, dog 2): 6.7%; concentration at 8 h ([2]; 8 hr, dog 2): 0.0619 µg/mL; concentration at 8 h ([2]; 8 hr, dog 3): 0.0248 µg/mL; concentration at 24 h ([2]; 24 hr, dog 1): 0.104 µg/mL; concentration at 24 h ([2]; 24 hr, dog 2): 0.023 µg/mL; concentration at 48 h ([2]; 48 hr, dog 1): 0.058 µg/mL; concentration at 48 h ([2]; 48 hr, dog 2): 0.0447 µg/mL; Chromatographic distribution of radioactivity in dog urine ([3]; 8-24 hr, Mean): 6.6%; Chromatographic distribution of radioactivity in dog urine ([3]; 8-24 hr, dog 2): 4.7%; Chromatographic distribution of radioactivity in dog urine ([3]; 24-48 hr, Mean): 5.7%; Chromatographic distribution of radioactivity in dog urine ([3]; 24-48 hr, dog 2): 7.6%; Chromatographic distribution of radioactivity in dog urine ([3]; 24-48 hr, dog 3): 7.6%; Chromatographic distribution of radioactivity in dog urine ([3]; 24-48 hr, dog 4): 3.2% |
| P, U, F | – | 8.0% | 6.6% | 12% | – | BQL | BQL | 7.0% | BQL | BQL | – | 0.0995 µg/mL | 0.0331 µg/mL | 0.192 µg/mL | – | 0.135 µg/mL | 21% | 26% | 25% | OC1[C@@H]2CCC[C@@H]2c2cccc3c2N1CCNC3 (some centres unmarked) [Metabolite M2, hydroxy DCDQ] | Estimated plasma concentration in dogs ([2]; 2 hr, dog 1): BQL^b; Estimated plasma concentration in dogs ([2]; 8 hr, dog 1): BQL; Estimated plasma concentration in dogs ([2]; 24 hr, dog 1): BQL; Chromatographic distribution of radioactivity in dog plasma ([2]; 24 hr, dog 2): 5.0%; Estimated plasma concentration in dogs ([2]; 48 hr, dog 2): BQL; concentration at 24 h ([2]; 24 hr, dog 2): 0.0553 µg/mL; Chromatographic distribution of radioactivity in dog urine [3, 4]: 10%; Chromatographic distribution of radioactivity in dog urine ([3]; 8-24 hr, Mean): 24%; Chromatographic distribution of radioactivity in dog urine ([3]; 8-24 hr, dog 2): 26%; Chromatographic distribution of radioactivity in dog urine ([3]; 24-48 hr, Mean): 22%; Chromatographic distribution of radioactivity in dog urine ([3]; 24-48 hr, dog 2): 18%; Chromatographic distribution of radioactivity in dog urine ([3]; 24-48 hr, dog 3): 22%; Chromatographic distribution of radioactivity in dog urine ([3]; 24-48 hr, dog 4): 21% |
| – | 12% | 2.9% | 6.6% | 5.3% | 4.0% | BQL | BQL | – | BQL | BQL | 0.0431 µg/mL | 0.0364 µg/mL | 0.0331 µg/mL | 0.0866 µg/mL | 0.0217 µg/mL | – | – | – | 8.5% | [O-][N+]12CCN=Cc3cccc(c31)[C@H]1CCC[C@H]1C2 (some centres unmarked) [Metabolite M5, DCDQ imine N-oxide] | Estimated plasma concentration in dogs ([2]; 24 hr, dog 1): BQL; Estimated plasma concentration in dogs ([2]; 24 hr, dog 2): BQL; Estimated plasma concentration in dogs ([2]; 24 hr, dog 3): BQL; Chromatographic distribution of radioactivity in dog plasma ([2]; 48 hr, dog 2): 2.8%; concentration at 48 h ([2]; 48 hr, dog 2): 0.0189 µg/mL; Chromatographic distribution of radioactivity in dog urine [3, 4]: 5.9%; Chromatographic distribution of radioactivity in dog urine ([3]; 24-48 hr, dog 2): 4.0% |

| Compound | Matrix [1] | Chromatographic distribution of radioactivity in dog plasma ([2]; 2 hr, dog 1) | Chromatographic distribution of radioactivity in dog plasma ([2]; 2 hr, dog 2) | Chromatographic distribution of radioactivity in dog plasma ([2]; 4 hr, dog 1) | Chromatographic distribution of radioactivity in dog plasma ([2]; 4 hr, dog 2) | Chromatographic distribution of radioactivity in dog plasma ([2]; 8 hr, dog 1) | Estimated plasma concentration in dogs ([2]; 8 hr, dog 2) | Estimated plasma concentration in dogs ([2]; 8 hr, dog 3) | Chromatographic distribution of radioactivity in dog plasma ([2]; 24 hr, dog 3) | Estimated plasma concentration in dogs ([2]; 48 hr, dog 1) | Estimated plasma concentration in dogs ([2]; 48 hr, dog 3) | concentration at 2 h ([2]; 2 hr, dog 1) | concentration at 2 h ([2]; 2 hr, dog 2) | concentration at 4 h ([2]; 4 hr, dog 1) | concentration at 4 h ([2]; 4 hr, dog 2) | concentration at 8 h ([2]; 8 hr, dog 1) | concentration at 24 h ([2]; 24 hr, dog 3) | Chromatographic distribution of radioactivity in dog urine ([3]; 8-24 hr, dog 1) | Chromatographic distribution of radioactivity in dog urine ([3]; 8-24 hr, dog 3) | Chromatographic distribution of radioactivity in dog urine ([3]; 24-48 hr, dog 1) | also measured |
| --- | --- | --- | --- | --- | --- | --- | --- | --- | --- | --- | --- | --- | --- | --- | --- | --- | --- | --- | --- | --- | --- |
| c1cc2c3c(c1)[C@H]1CCC[C@H]1CN3CCNC2 [DCDQ, (9aR,12aS)-4,5,6,7,9,9a,10,11,12,12a-decahydro-cyclopenta[c][1,4]diazepine[6,7,1-ij]quinoline, reference compound] | P, U, F | 11% | 1.9% | 11% | 21% | 2.7% | BQL | BQL | 2.3% | BQL | BQL | 0.0396 µg/mL | 0.0232 µg/mL | 0.0525 µg/mL | 0.345 µg/mL | 0.0145 µg/mL | 0.0438 µg/mL | 9.5% | 11% | 3.8% | Chromatographic distribution of radioactivity in dog plasma ([2]; 24 hr, dog 1): 2.6%; Estimated plasma concentration in dogs ([2]; 24 hr, dog 2): BQL; Estimated plasma concentration in dogs ([2]; 48 hr, dog 2): BQL; concentration at 24 h ([2]; 24 hr, dog 1): 0.0396 µg/mL; Chromatographic distribution of radioactivity in dog urine ([3]; 24-48 hr, Mean): 3.4%; Chromatographic distribution of radioactivity in dog urine ([3]; 24-48 hr, dog 3): 3.0%; Chromatographic distribution of radioactivity in dog urine ([3]; 24-48 hr, dog 4): 6.9% |

Reference: patent US20060111305A1, “Metabolites of certain [1,4]diazepino[6,7,1-ij]quinoline derivatives and methods of preparation and use thereof” (Wyeth, priority 2004, published 2006)
